Experimental data reported in US4835190A, “Phenolic thioethers as inhbitors of 5-lipoxygenase” (G. D. Searle & Co., priority 1987, dated 1989).

Legend:
[1] = biological target: T1, 5-lipoxygenase (Rattus norvegicus, UniProt P12527); test: Inhibition of 5-lipoxygenase, in vitro (5-HETE synthesis, RBL-1 homogenate supernatant); assay type: biochemical; conditions: RBL-1 100,000×g supernatant, [1-14C]-arachidonic acid and Ca++, 5-HETE by TLC; initial screen 1×10^-4 M
T1 construct: supernatant fraction of Rat Basophilic Leukemia Cell Homogenate (RBL-1) serves as a 5-lipoxygenase enzyme source; endogenous in cells; host or cells: RBL-1 (rat basophilic leukemia) cells, 100,000×g supernatant of homogenate
T1 sequence (P12527 1-673): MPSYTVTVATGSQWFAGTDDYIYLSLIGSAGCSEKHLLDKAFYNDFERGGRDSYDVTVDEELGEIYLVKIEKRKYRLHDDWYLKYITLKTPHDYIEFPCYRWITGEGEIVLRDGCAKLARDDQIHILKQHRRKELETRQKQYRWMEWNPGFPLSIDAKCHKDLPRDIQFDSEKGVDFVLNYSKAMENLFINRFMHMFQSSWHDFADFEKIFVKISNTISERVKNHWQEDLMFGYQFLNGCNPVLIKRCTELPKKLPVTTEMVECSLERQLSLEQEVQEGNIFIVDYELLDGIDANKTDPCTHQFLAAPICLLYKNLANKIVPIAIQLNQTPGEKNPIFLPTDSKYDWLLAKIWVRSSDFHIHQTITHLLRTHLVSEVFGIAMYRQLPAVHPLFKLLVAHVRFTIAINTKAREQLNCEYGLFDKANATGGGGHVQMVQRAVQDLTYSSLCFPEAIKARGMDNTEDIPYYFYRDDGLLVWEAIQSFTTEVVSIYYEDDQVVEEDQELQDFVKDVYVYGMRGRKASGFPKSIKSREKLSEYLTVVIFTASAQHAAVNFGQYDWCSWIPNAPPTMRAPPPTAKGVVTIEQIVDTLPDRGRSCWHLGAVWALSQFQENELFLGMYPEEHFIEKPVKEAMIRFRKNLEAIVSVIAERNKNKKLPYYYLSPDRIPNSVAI
Procedure: The compounds of the invention are evaluated with respect to 5-lipoxygenaseinhibition according to the following assay procedure.
Inhibition of 5-lipoxygenase, in vitro: anti-inflammatory, anti-allergy activities. The 100,000×g supernatant fraction of Rat Basophilic Leukemia Cell Homogenate (RBL-1) serves as a 5-lipoxygenase enzyme source. The enzyme is incubated with [1-^14 C)-arachidonic acid and Ca++ in the presence and absence of test compound. The product of 5-lipoxygenase, 5-hydroxyeicosatetraenoic acid (5-HETE), is separated by thin-layer chromatography and measured by radioactivity. A compound inhibiting 5-HETE synthesis by 30% or more is considered active at that concentration.

[2] = versus histamine; cited from earlier work

IC50 [1] [µM] | SMILES | also measured
11 | CSc1c(O)c(C(C)(C)C)cc(C(C)(C)C)c1O [Example 9, 4,6-bis(1,1-dimethylethyl)-2-(methylthio)-1,3-benzenediol] | 
 | CCCCC/C=C\C\C=C/C=C/C=C/[C@@H](SC[C@H](NC(=O)CC[C@H](N)C(=O)O)C(=O)NCC(=O)O)[C@@H](O)CCCC(=O)O [LTC4] | potency relative to histamine in causing long lasting bronchoconstricting effects [2]: at least 100 times
100 | COc1c(C(C)(C)C)cc(SC)cc1C(C)(C)C [Example 8, 2,6-bis(1,1-dimethylethyl)-1-methoxy-4-(methylthio)benzene] | 
0.58 | CSc1cc(C(C)(C)C)c(O)c(C(C)(C)C)c1 [Example 5, 2,6-bis(1,1-dimethylethyl)-4-(methylthio)phenol] | 
100 | C[S+]([O-])c1cc(C(C)(C)C)c(O)c(C(C)(C)C)c1 (centres unmarked) [Example 6, 2,6-bis(1,1-dimethylethyl)-4-(methylsulfinyl)phenol] | 
1.3 | CC(C)Sc1cc(C(C)(C)C)c(O)c(C(C)(C)C)c1 [Example 4, 2,6-bis(1,1-dimethylethyl)-4-[(1-methylethyl)thio]-phenol] | 
 | CC(C)(C)c1cc(S(C)(=O)=O)cc(C(C)(C)C)c1O [Example 7, 2,6-bis(1,1-dimethylethyl)-4-(methylsulfonyl)phenol] | 5-Lipoxygenase Inhibition, in vitro, IC50 [1]: Inactive
1.2 | CCCCCSc1cc(C(C)(C)C)c(O)c(C(C)(C)C)c1 [Example 3, 2,6-bis(1,1-dimethylethyl)-4-(pentylthio)phenol] | 
